Test results reported in patent publication US6548043B1, “Measurement of gastric emptying” (Metabolic Solutions, Inc., priority 1999, dated 2003).

Experiment: GMBT, influence of a promotility agent
Type: in vivo, human
Settings: Cisapride 10 mg the evening before and one half hour before a 350 kcal muffin test meal
Protocol: An experiment was done to examine the ability of the GMBT to detect changes introduced by the promotility agent, Cisapride. Gastric emptying tests employing a 350 kcal muffin test meal were administered on two occasions within a one-week period. One test was conducted as a control. The other test was conducted after treatment with Cisapride. Cisapride (10 mg) was administered at 10:00 P.M. on the evening prior to the test and one half hour before administration of the muffin test meal. Gastric emptying results for the control meal were delayed relative to the meal administered with Cisapride.

COc1cc(N)c(Cl)cc1C(=O)NC1CCN(CCCOc2ccc(F)cc2)CC1OC (centres unmarked) [Cisapride]
change in T½ versus control (p=0.05): significant decrease
change in Tlag versus control (p=0.21): not significant
